Laboratory results as given in patent publication US20250107523A1, “TRIGGERING DIATOM PROGRAMMED CELL DEATH BY STIMULATING INFOCHEMICAL SIGNALING SYSTEMS” (BATTELLE MEMORIAL INSTITUTE, priority 2023, published 2025).

Legend:
[1] = tested on: model diatoms; conditions: cited from earlier work
[2] = tested on: freshwater diatom Encyonema minutum var. pseudogracialis (Em); test: Lethality experiments on diatom Em in 96-well plates, live/dead count by Neutral Red vital staining; type: cell-based; conditions: 10 μM TDD alone; ~24 hours, 20° C.; n=3
Procedure: Em was maintained and tested at BMI in a modified filter-sterilized CR1-S algal medium with no soil particles so as to improve visualization and counting speed and accuracy.
All experiments were conducted in untreated polystyrene 96-well plates. Total liquid volume added to each well was 200 μL for all assays. At the start of each experiment, a conical tube of diatom Em was split into two and given fresh media (1:1 algae:media), then examined under a microscope to confirm vitality.
Lethality experiments were conducted with 6 different commercial algicides (AlgaeFix™, DINO X, Aquathol® K, Cutrine® Plus, GreenClean® PRO, and Hydrothol® 191 Granular) and two infochemicals (trans,trans-2,4-decadienal [TDD] and cholesterol-3-sulfate [C3S]). Fresh 50 mM or 25 mM stock solutions of each infochemical were prepared in DMSO immediately prior to each experiment. […]
Following incubation, 1.5 μL of filtered Neutral Red (0.8 g in 25 mL DI) for every 100 μL of solution (3 μL for 200 μL) was added to each well. […] A different staff member counted cells in 5 μL from each well using a hemocytometer under a microscope; this second staff member was not told which treatments were in which wells, so as to maintain single-blind data collection. Total cells were counted, along with live/dead characterization via Neutral Red vital cell staining, and time of well count completion.

Row | Compound | Level leading to programmed-cell-death / cell death [1] | Single treatment: lethality above negative control [2]
1 | CC(C)CCC[C@@H](C)[C@H]1CC[C@H]2[C@@H]3CC=C4C[C@@H](OS(=O)(=O)O)CC[C@]4(C)[C@H]3CC[C@]12C [C3S, cholesterol-3-sulfate, reference compound] | micromolar levels | 
2 | CCCCC/C=C/C=C/C=O [TDD, trans,trans-2,4-decadienal] | micromolar levels | 6.7%
